In patent US4273765A, “Amino sugar derivatives containing trehalose” (Hoffmann-La Roche Inc., priority 1978, dated 1981):

What was measured:
[1] = Solubility in solvents; format: physicochemical
Text: (h) Solubility in solvents:

[2] = Titration (in water); format: physicochemical
[3] = system: E. coli NIHJ; test: Antimicrobial spectrum, agar-dilution method; format: cell-based
[4] = system: E. coli NIHJ SMf; test: Antimicrobial spectrum, agar-dilution method; format: cell-based
[5] = system: E. coli NIHJ STf; test: Antimicrobial spectrum, agar-dilution method; format: cell-based
[6] = system: E. coli K-12 ML1630; test: Antimicrobial spectrum, agar-dilution method; format: cell-based; conditions: E. coli K-12 ML1630, agar-dilution
[7] = system: E. coli CF17; test: Antimicrobial spectrum, agar-dilution method; format: cell-based
[8] = system: E. coli CF41; test: Antimicrobial spectrum, agar-dilution method; format: cell-based
[9] = system: Salmonella typhimurium IFO12529; test: Antimicrobial spectrum, agar-dilution method; format: cell-based
[10] = system: Citrobacter; test: Antimicrobial spectrum, agar-dilution method; format: cell-based
[11] = system: Shigella flexneri; test: Antimicrobial spectrum, agar-dilution method; format: cell-based
[12] = system: Klebsiella pneumoniae PCI602; test: Antimicrobial spectrum, agar-dilution method; format: cell-based
[13] = system: Pseudomonas aeruginosa IFO12689; test: Antimicrobial spectrum, agar-dilution method; format: cell-based
[14] = system: Pseudomonas aeruginosa A3; test: Antimicrobial spectrum, agar-dilution method; format: cell-based
[15] = system: Pseudomonas aeruginosa P2; test: Antimicrobial spectrum, agar-dilution method; format: cell-based
[16] = system: Proteus vulgaris OX19 ATCC6898; test: Antimicrobial spectrum, agar-dilution method; format: cell-based
[17] = system: Bordetella bronchiseptica Aichi 202; test: Antimicrobial spectrum, agar-dilution method; format: cell-based; conditions: Bordetella bronchiseptica Aichi 202, agar-dilution
[18] = system: Proteus rettgeri; test: Antimicrobial spectrum, agar-dilution method; format: cell-based
[19] = system: Serratia marcescens IFO12648; test: Antimicrobial spectrum, agar-dilution method; format: cell-based
[20] = system: Staphylococcus aureus FDA209P; test: Antimicrobial spectrum, agar-dilution method; format: cell-based
[21] = system: Staphylococcus aureus MS3937; test: Antimicrobial spectrum, agar-dilution method; format: cell-based
[22] = system: Staphylococcus aureus MS9261; test: Antimicrobial spectrum, agar-dilution method; format: cell-based
[23] = system: Staphylococcus aureus Smith; test: Antimicrobial spectrum, agar-dilution method; format: cell-based
[24] = system: Bacillus subtilis PCI 219; test: Antimicrobial spectrum, agar-dilution method; format: cell-based; conditions: Bacillus subtilis PCI 219, agar-dilution
[25] = system: Sarcina lutea ATCC 9341; test: Antimicrobial spectrum, agar-dilution method; format: cell-based; conditions: Sarcina lutea ATCC 9341, agar-dilution
[26] = system: Candida albicans Yu1200; test: Antimicrobial spectrum, agar-dilution method; format: cell-based
[27] = system: Mycobacterium smegmatis ATCC607; test: Antimicrobial spectrum, agar-dilution method; format: cell-based
[28] = biological target: T1, porcine pancreatic α-amylase (Sus scrofa, UniProt P00690); test: Porcine pancreatic α-amylase inhibitory activity (Bernfeld assay); format: biochemical; conditions: IU = amount giving 50% inhibition of 2 units porcine pancreatic α-amylase, pH 6.9, 37° C.
T1 sequence (P00690 16-511): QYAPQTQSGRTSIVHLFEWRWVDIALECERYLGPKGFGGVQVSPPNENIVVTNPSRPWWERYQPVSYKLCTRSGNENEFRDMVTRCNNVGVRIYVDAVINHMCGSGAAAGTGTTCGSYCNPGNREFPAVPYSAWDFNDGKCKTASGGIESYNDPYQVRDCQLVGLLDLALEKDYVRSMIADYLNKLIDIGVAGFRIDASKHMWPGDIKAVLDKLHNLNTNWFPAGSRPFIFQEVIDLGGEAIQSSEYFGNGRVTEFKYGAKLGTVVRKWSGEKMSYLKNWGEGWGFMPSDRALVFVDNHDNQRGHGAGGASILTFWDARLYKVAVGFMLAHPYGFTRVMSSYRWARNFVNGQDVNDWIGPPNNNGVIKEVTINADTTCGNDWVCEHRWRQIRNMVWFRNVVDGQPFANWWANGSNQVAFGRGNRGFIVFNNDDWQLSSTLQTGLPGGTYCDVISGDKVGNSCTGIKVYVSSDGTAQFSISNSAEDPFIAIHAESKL
Description: 2 units* of porcine pancreatic α-amylase in 0.1 ml of 6.4 mM ammonium sulfate solution are added to 0.6 ml of 20 mM phosphate buffer (pH 6.9) containing 10 mM sodium chloride and different amounts of Trestatin. The mixture, after equilibration at 37° C. for 5 min. followed by the addition of 0.5 ml of 4% soluble starch solution, is incubated for 5 min. at 37° C. The reaction is terminated by the addition of 2 ml of dinitrosalicylic acid reagent prepared according to the method of P. Bernfeld. The mixture is heated on a boiling water bath for 5 min. and then diluted with 10 ml of water. Absorbance (A1) of the resulting colored solution is measured at 540 nm, and the inhibition of α-amylase activity can be calculated from the following equation: [formula] A0; absorbance without enzyme A2; absorbance without Trestatin
*1 unit of the α-amylase is the amount of enzyme which catalyzes under the above conditions without Trestatin the formation of reducing sugars equivalent to 1 μmol of maltose.
Each of said inhibitory activities was determined by the method mentioned above.

[29] = system: hyperglycemia induced by cooked rice starch; test: Inhibition of hyperglycemia induced by cooked rice starch, rats; format: in vivo; conditions: p.o., dose causing after 20 minutes a 20 percent decrease of hyperglycemia, 2 g/kg cooked rice starch
Description: (§1) **ED20 is defined as the dose causing after 20 minutes a 20 percent
(§2) decrease of hyperglycemia induced by oral administration of 2 g/kg body
(§3) weight cooked rice starch.

[30] = system: hyperglycemia induced by cooked rice starch; test: Inhibition of hyperglycemia induced by cooked rice starch, mice; format: in vivo; conditions: p.o., dose causing after 20 minutes a 20 percent decrease of hyperglycemia, 2 g/kg cooked rice starch
Description: as §1, §2, §3

[31] = system: hyperglycemia (hyperinsulinemia) following an oral load of native starch; test: Hyperglycemia (hyperinsulinemia) following an oral load of native starch; format: in vivo; conditions: 20 min. after wheat starch
Description: (§4) [Plasma Glucose and insulin 20 min. after carbohydrate ± Trestatin (1.
g wheat starch/kg or 3.2 g sucrose/kg)]

[32] = system: hyperglycemia following an oral load of sucrose; test: Hyperglycemia following an oral load of sucrose; format: in vivo; conditions: dose/kg 30.0 mg; 20 min. after 3.2 g sucrose/kg
Description: as §4
g wheat starch/kg or 3.2 g sucrose/kg)]

[33] = system: Salmonella paratyphi B; conditions: agar-dilution
[34] = system: rats; test: Acute toxicity, oral, rats; conditions: 500 mg/kg administered to rats orally (65-700 times the effective dosage)

## C[C@H]1O[C@H](O[C@H]2[C@H](O)[C@@H](O)[C@@H](O[C@H]3[C@H](O)[C@@H](O)[C@@H](O[C@H]4[C@H](O)[C@@H](O)[C@@H](O[C@H]5O[C@H](CO)[C@@H](O)[C@H](O)[C@H]5O)O[C@@H]4CO)O[C@@H]3CO)O[C@@H]2CO)[C@H](O)[C@@H](O)[C@@H]1N[C@H]1C=C(CO)[C@@H](O[C@H]2O[C@H](CO)[C@@H](O[C@H]3O[C@H](C)[C@@H](NC4C=C(CO)[C@@H](O[C@H]5O[C@H](CO)[C@@H](O[C@H]6O[C@H](C)[C@@H](NC7C=C(CO)[C@@H](O)[C@H](O)[C@H]7O)[C@H](O)[C@H]6O)[C@H](O)[C@H]5O)[C@H](O)[C@H]4O)[C@H](O)[C@H]3O)[C@H](O)[C@H]2O)[C@H](O)[C@H]1O (some centres unmarked) [Trestatin C]
[1]; acetone
  Solubility in acetone: slightly soluble
[1]; chloroform
  Solubility in chloroform: insoluble
[1]; dimethylsulfoxide
  Solubility in dimethylsulfoxide: soluble
[1]; ethanol
  Solubility in ethanol: slightly soluble
[1]; ethyl acetate
  Solubility in ethyl acetate: insoluble
[1]; water
  Solubility in water: easily soluble
[2]
  pKa': 5.0
[3]
  Antimicrobial spectrum: > 100 µg/mL
[4]
  Antimicrobial spectrum: > 100 µg/mL
[5]
  Antimicrobial spectrum: > 100 µg/mL
[6]
  Antimicrobial spectrum: > 100 µg/mL
[7]
  Antimicrobial spectrum: > 100 µg/mL
[8]
  Antimicrobial spectrum: > 100 µg/mL
[9]
  Antimicrobial spectrum: > 100 µg/mL
[10]
  Antimicrobial spectrum: > 100 µg/mL
[11]
  Antimicrobial spectrum: > 100 µg/mL
[12]
  Antimicrobial spectrum: > 100 µg/mL
[13]
  Antimicrobial spectrum: > 100 µg/mL
[14]
  Antimicrobial spectrum: > 100 µg/mL
[15]
  Antimicrobial spectrum: > 100 µg/mL
[16]
  Antimicrobial spectrum: > 100 µg/mL
[17]
  Antimicrobial spectrum: > 100 µg/mL
[18]
  Antimicrobial spectrum: > 100 µg/mL
[19]
  Antimicrobial spectrum: > 100 µg/mL
[20]
  Antimicrobial spectrum: > 100 µg/mL
[21]
  Antimicrobial spectrum: > 100 µg/mL
[22]
  Antimicrobial spectrum: > 100 µg/mL
[23]
  Antimicrobial spectrum: > 100 µg/mL
[24]
  Antimicrobial spectrum: > 100 µg/mL
[25]
  Antimicrobial spectrum: > 100 µg/mL
[26]
  Antimicrobial spectrum: > 100 µg/mL
[27]
  Antimicrobial spectrum: > 100 µg/mL
[28]
  Inhibitory activities: 4.9 × 10^7 IU/g
[29]
  ED20, inhibition of hyperglycemia induced by cooked rice starch: 3.0 mg/kg
[30]
  ED20, inhibition of hyperglycemia induced by cooked rice starch: 0.7 mg/kg
[31]; dose/kg 0.3 mg
  Plasma glucose, starch - load: 71% of carbohydrate primed controls
  Plasma insulin, starch - load: 51% of carbohydrate primed controls
[31]; dose/kg 1.0 mg
  Plasma glucose, starch - load: 60% of carbohydrate primed controls
  Plasma insulin, starch - load: 51% of carbohydrate primed controls
[31]; dose/kg 3.0 mg
  Plasma glucose, starch - load: 58% of carbohydrate primed controls
  Plasma insulin, starch - load: 63% of carbohydrate primed controls
[32]
  Plasma glucose, sucrose - load: 85% of carbohydrate primed controls
[33]
  Antimicrobial spectrum: > 100 µg/mL
[34]
  Acute toxicity: not observed
